Values after ≈ are worked out from the molar mass of the structure shown. Peptide text beside a SMILES is read from it.
Key:
Type in all cases: functional
[1] = test system: Cryptococcus neoformans; test: Antifungal activity against Cryptococcus neoformans H99 measured after 24 to 48 hrs by CLSI method; conditions: time 24-48 hrs
[2] = test system: Candida parapsilosis; test: Antifungal activity against Candida parapsilosis ATCC 22019 measured after 24 to 48 hrs by CLSI method; conditions: Lodderomyces parapsilosis, time 24-48 hrs
[3] = test system: Candida albicans; test: Antifungal activity against Candida albicans SC5314 measured after 24 to 48 hrs by CLSI method; conditions: time 24-48 hrs
[4] = test system: Pichia kudriavzevii; test: Antifungal activity against Candida krusei IFM56881 measured after 24 to 48 hrs by CLSI method; conditions: time 24-48 hrs

For `CC[C@H](C)[C@H](NC(=O)CNC(=O)[C@H](C)NC(=O)[C@H](CC(C)C)NC(=O)[C@H](C)NC(=O)[C@H](Cc1c[nH]c2ccccc12)NC(=O)[C@H](CC(C)C)NC(=O)[C@H](CCCCN)NC(=O)[C@H](CCCCN)NC(=O)[C@H](Cc1ccc(O)cc1)NC(=O)[C@H](CCCCN)NC(=O)[C@@H](N)CCSC)C(=O)N[C@@H](C)C(=O)N[C@@H](CC(C)C)C(=O)N[C@@H](CO)C(=O)N[C@@H](CS)C(=O)N[C@@H](CC(N)=O)C(=O)N[C@@H](CC(C)C)C(=O)N[C@@H](CC(C)C)C(=O)N[C@@H](CC(C)C)C(=O)N[C@H](C(=O)N[C@@H](C)C(=O)O)[C@@H](C)O` (H-MKYKKLWALAGIALSCNLLLTA-OH), the MIC [1] was > 106 µM, the MIC [2] was > 106 µM and the MIC [3] was > 106 µM. For the same compound, the MIC [4] was > 106 µM.
With `CC[C@H](C)[C@H](NC(=O)[C@H](Cc1cnc[nH]1)NC(=O)[C@H](C)NC(=O)[C@H](CC(C)C)NC(=O)[C@H](CC(C)C)NC(=O)[C@H](CCCCN)NC(=O)[C@H](CCSC)NC(=O)[C@@H](NC(=O)[C@@H](NC(=O)[C@H](Cc1cnc[nH]1)NC(=O)[C@H](Cc1c[nH]c2ccccc12)NC(=O)[C@@H](NC(=O)[C@H](CCCCN)NC(=O)[C@H](Cc1cnc[nH]1)NC(=O)[C@@H](NC(=O)[C@H](CCCCN)NC(=O)[C@H](Cc1cnc[nH]1)NC(=O)[C@@H](N)Cc1ccc(O)cc1)[C@@H](C)CC)C(C)C)[C@@H](C)CC)[C@@H](C)CC)C(=O)O` (H-YHKIHKVWHIIMKLLAHI-OH) the MIC [1] was 7.02 µM (≈ 16 µg/mL), the MIC [2] was 14 µM (≈ 32 µg/mL) and the MIC [3] was 28.1 µM (≈ 64 µg/mL). It also gave an MIC [4] of 7.02 µM (≈ 16 µg/mL).
Work on `CC[C@H](C)[C@H](NC(=O)[C@H](CCCCN)NC(=O)[C@@H](NC(=O)[C@@H](N)CCSC)[C@@H](C)O)C(=O)N[C@@H](CC(C)C)C(=O)N[C@@H](CC(C)C)C(=O)N[C@H](C(=O)N[C@H](C(=O)N[C@@H](CCCCN)C(=O)N[C@@H](CCCNC(=N)N)C(=O)N[C@@H](CC(C)C)C(=O)N[C@@H](CCCNC(=N)N)C(=O)N[C@H](C(=O)N[C@H](C(=O)N[C@@H](Cc1ccc(O)cc1)C(=O)N[C@H](C(=O)N[C@@H](CCCCN)C(=O)N[C@@H](CCCNC(=N)N)C(=O)N[C@@H](CS)C(=O)N[C@@H](CC(C)C)C(=O)N[C@@H](CS)C(=O)N[C@@H](Cc1ccccc1)C(=O)N[C@@H](CCCNC(=N)N)C(=O)N[C@@H](C)C(=O)O)[C@@H](C)O)C(C)C)[C@@H](C)O)C(C)C)[C@@H](C)CC` (H-MTKILLIVKRLRTVYTKRCLCFRA-OH) yielded an MIC [1] of 5.47 µM (≈ 16 µg/mL), an MIC [2] of 43.8 µM (≈ 128 µg/mL) and an MIC [3] of 43.8 µM (≈ 128 µg/mL). The MIC [4] was 21.9 µM (≈ 64 µg/mL).
With `CC[C@H](C)[C@H](NC(=O)[C@@H](NC(=O)[C@H](Cc1ccccc1)NC(=O)[C@H](CS)NC(=O)[C@@H](NC(=O)[C@H](CC(C)C)NC(=O)[C@H](Cc1ccccc1)NC(=O)[C@@H](NC(=O)[C@H](Cc1ccccc1)NC(=O)CNC(=O)[C@H](Cc1ccccc1)NC(=O)[C@H](CCCCN)NC(=O)[C@H](CCCCN)NC(=O)[C@H](CCCCN)NC(=O)[C@H](CC(C)C)NC(=O)[C@@H](N)CCSC)C(C)C)C(C)C)C(C)C)C(=O)N[C@@H](Cc1ccccc1)C(=O)N[C@@H](Cc1cnc[nH]1)C(=O)N[C@@H](CO)C(=O)N[C@@H](CS)C(=O)N[C@@H](CCCCN)C(=O)O` (H-MLKKKFGFVFLVCFVIFHSCK-OH) the MIC [1] was > 102 µM, the MIC [2] was > 102 µM and the MIC [3] was > 102 µM. The MIC [4] was > 102 µM.

Source: ChEMBL document CHEMBL5113381, “Large-Scale Screening of Antifungal Peptides Based on Quantitative Structure-Activity Relationship” (2022)
